Measured values published in the NIST ThermoML archive (doi:10.1021/je2008523).
Numbers after ± are expanded uncertainties.

Columns and labels:
[1] = refractive index (Na D-line) (dimensionless); conditions: 303.1 K; 101.33 kPa; Liquid; Standard Abbe refractometry

CN(CCO)CCO [N-methyldiethanolamine]
mass density (298.1 K, 101.33 kPa, Liquid, Vibrating tube method): 1038.11 ± 0.92 kg/m3 | viscosity (298.15 K, 101.33 kPa, Liquid, Capillary tube (Ostwald / Ubbelohde) method): 77.09 ± 1.8 mPa·s | surface tension liquid-gas (303.15 K, Pendant drop shape): 38.26 ± 0.53 mN/m | refractive index [1]: 1.46008 ± 0.00051
